Test results from ChEMBL document CHEMBL3714729, “Heterocyclic compounds for the inhibition of pask” (2012).

Target: PAS domain-containing serine/threonine-protein kinase (Homo sapiens, UniProt Q96RG2)
Test: Inhibition of human recombinant PASK using Ulight-peptide substrate incubated for 2 hrs by TR-FRET assay

Chain of PAS domain-containing serine/threonine-protein kinase (Q96RG2 whole entry, the tested form may be a part): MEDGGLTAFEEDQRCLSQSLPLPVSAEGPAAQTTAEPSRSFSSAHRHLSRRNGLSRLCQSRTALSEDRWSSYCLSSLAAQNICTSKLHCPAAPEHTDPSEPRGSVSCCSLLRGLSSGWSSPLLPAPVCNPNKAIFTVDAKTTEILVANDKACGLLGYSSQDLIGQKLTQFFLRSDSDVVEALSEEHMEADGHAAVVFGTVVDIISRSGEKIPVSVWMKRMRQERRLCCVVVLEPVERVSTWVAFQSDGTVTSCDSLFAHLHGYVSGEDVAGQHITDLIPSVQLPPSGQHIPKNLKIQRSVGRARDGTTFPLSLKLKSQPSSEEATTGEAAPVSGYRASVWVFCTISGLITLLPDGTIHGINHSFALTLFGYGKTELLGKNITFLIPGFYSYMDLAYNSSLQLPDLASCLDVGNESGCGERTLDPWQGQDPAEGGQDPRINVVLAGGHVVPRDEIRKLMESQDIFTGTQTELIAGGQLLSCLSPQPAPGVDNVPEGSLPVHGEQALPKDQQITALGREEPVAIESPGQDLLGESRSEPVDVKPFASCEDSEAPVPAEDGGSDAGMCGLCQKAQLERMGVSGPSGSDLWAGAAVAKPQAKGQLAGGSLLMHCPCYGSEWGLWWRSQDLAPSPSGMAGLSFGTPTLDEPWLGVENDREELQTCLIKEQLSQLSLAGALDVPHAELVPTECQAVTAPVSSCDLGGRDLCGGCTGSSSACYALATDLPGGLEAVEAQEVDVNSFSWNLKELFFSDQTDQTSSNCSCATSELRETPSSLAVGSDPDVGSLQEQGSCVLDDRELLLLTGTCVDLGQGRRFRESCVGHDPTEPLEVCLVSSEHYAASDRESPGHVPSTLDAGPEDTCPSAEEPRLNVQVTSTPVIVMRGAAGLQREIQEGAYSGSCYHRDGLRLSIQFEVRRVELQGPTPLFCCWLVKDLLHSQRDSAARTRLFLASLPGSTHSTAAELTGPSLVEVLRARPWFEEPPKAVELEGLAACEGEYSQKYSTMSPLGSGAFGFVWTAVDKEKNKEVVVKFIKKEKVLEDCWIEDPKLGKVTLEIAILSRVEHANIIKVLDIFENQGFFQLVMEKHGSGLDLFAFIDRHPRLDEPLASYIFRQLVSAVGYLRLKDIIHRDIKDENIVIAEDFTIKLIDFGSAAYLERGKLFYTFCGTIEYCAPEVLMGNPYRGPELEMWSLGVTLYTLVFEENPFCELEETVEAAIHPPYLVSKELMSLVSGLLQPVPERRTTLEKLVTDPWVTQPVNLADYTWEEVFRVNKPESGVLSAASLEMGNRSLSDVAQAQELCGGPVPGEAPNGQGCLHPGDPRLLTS

| IC50 [µM] | Compound |
| --- | --- |
| ≤ 10 | Nc1nn2c(=O)cc(-c3ccc4occc4c3)[nH]c2c1-c1ccccn1 |
| ≤ 10 | CCC(=O)Nc1nn2c(=O)cc(-c3ccc4c(c3)OCO4)[nH]c2c1-c1ccccn1 |
| ≤ 10 | O=c1cc(-c2ccc3c(c2)OCCO3)[nH]c2c(-c3ccc(Br)cc3)cnn12 |
| ≤ 10 | O=c1cc(-c2ccc3[nH]nnc3c2)[nH]c2c(-c3ccccc3)c(O)nn12 |
| ≤ 10 | O=c1cc(-c2ccc3c(c2)OCCO3)[nH]c2c(-c3ccc(F)cc3)cnn12 |
| ≤ 10 | Cc1nn2c(=O)cc(-c3ccc4[nH]nnc4c3)[nH]c2c1-c1ccccn1 |
| ≤ 10 | COc1ccc(-c2c(C)nn3c(=O)cc(-c4ccc5ncccc5c4)[nH]c23)cc1 |
| ≤ 10 | CCc1nn2c(=O)cc(-c3ccc4c(cnn4C)c3)[nH]c2c1-c1ccccn1 |
| ≤ 10 | CCc1nn2c(=O)cc(-c3ccc4[nH]nnc4c3)[nH]c2c1-c1ccccc1 |
| ≤ 10 | O=c1cc(-c2ccc3[nH]nnc3c2)[nH]c2c(-c3ccccn3)cnn12 |
| ≤ 10 | CCC(=O)Nc1nn2c(=O)cc(-c3ccc4nn[nH]c4c3)[nH]c2c1-c1ccccn1 |
| ≤ 10 | Cc1nn2c(=O)cc(-c3ccc4[nH]nnc4c3)[nH]c2c1Cc1ccccc1 |
| ≤ 10 | COc1nn2c(=O)cc(-c3ccc(Cl)cc3)[nH]c2c1C#N |
| ≤ 10 | O=c1cc(-c2cccc(F)c2)[nH]c2c(-c3ccccn3)cnn12 |
| ≤ 10 | COc1c(-c2cc(=O)n3ncc(-c4ccccn4)c3[nH]2)ccc2c1OCO2 |
| ≤ 10 | Cn1nnc2cc(-c3cc(=O)n4nc(N)c(-c5ccccn5)c4[nH]3)ccc21 |
| ≤ 10 | CCCNC(=O)c1c(N)nn2c(=O)cc(-c3ccc4c(c3)OCO4)[nH]c12 |
| ≤ 10 | CC(=O)Nc1nn2c(=O)cc(-c3ccc4[nH]nnc4c3)[nH]c2c1-c1ccccn1 |
| ≤ 10 | CS(=O)(=O)c1ccc(-c2cc(=O)n3ncc(-c4ccccn4)c3[nH]2)cc1 |
| ≤ 10 | Nc1nn2c(=O)cc(-c3ccc(C(F)(F)F)cc3)[nH]c2c1-c1ccccn1 |
| ≤ 10 | COc1cc(OC)cc(-c2cc(=O)n3ncc(-c4ccccn4)c3[nH]2)c1 |
| ≤ 10 | Cc1coc2ccc(-c3cc(=O)n4nc(N)c(-c5ccccn5)c4[nH]3)cc12 |
| ≤ 10 | COc1ccc(-c2cnn3c(=O)cc(-c4ccccc4)[nH]c23)cn1 |
| ≥ 10 | O=c1cc(-c2ccccc2)[nH]c2c(-c3ccc(N4CCCCC4)nc3)cnn12 |
| ≤ 10 | Cc1n[nH]c2ccc(-c3cc(=O)n4ncc(-c5ccccn5)c4[nH]3)cc12 |
| ≤ 10 | CC(C)C(=O)Nc1nn2c(=O)cc(-c3ccc4c(c3)OCO4)[nH]c2c1-c1ccccn1 |
| ≤ 10 | O=c1cc(-c2ccc(Cl)cc2F)[nH]c2c(-c3ccccn3)cnn12 |

The next lines start with the compound.

| Compound | IC50 [µM] |
| --- | --- |
| O=c1cc(-c2ccc3c(c2)OCCO3)[nH]c2c(-c3cccnc3)c(O)nn12 | ≤ 10 |
| O=c1cc(-c2ccccc2)[nH]c2c(-c3cccnc3)c(O)nn12 | ≤ 10 |
| Cc1nn2c(=O)cc(-c3ccc(O)cc3)[nH]c2c1-c1ccccc1 | ≤ 10 |
| COc1ccc(-c2c(C)nn3c(=O)cc(-c4ccc5c(c4)OCCO5)[nH]c23)cc1 | ≤ 10 |
| CCc1nn2c(=O)cc(-c3ccc(Cl)cc3)[nH]c2c1-c1ccccn1 | ≤ 10 |
| Nc1nn2c(=O)cc(-c3ccc(F)cc3F)[nH]c2c1-c1ccccn1 | ≤ 10 |
| COc1nn2c(=O)cc(-c3ccc4c(c3)OCO4)[nH]c2c1-c1ccccn1 | ≤ 10 |
| Cc1n[nH]c2ccc(-c3cc(=O)n4nc(N)c(-c5ccccn5)c4[nH]3)cc12 | ≤ 10 |
| O=c1cc(-c2ccc3[nH]nnc3c2)[nH]c2c(Cc3ccccc3)c(O)nn12 | ≤ 10 |
| O=C(O)c1cnn2c(=O)cc(-c3ccc4c(c3)OCCO4)[nH]c12 | ≤ 10 |
| CCCc1cnn2c(=O)cc(-c3ccc4c(c3)OCO4)[nH]c12 | ≤ 10 |
| Cc1c(-c2cc(=O)n3nc(O)c(-c4ccccn4)c3[nH]2)ccc2c1OCO2 | ≤ 10 |
| COc1ccc(-c2cnn3c(=O)cc(-c4ccc5c(c4)OCCO5)[nH]c23)cc1 | ≤ 10 |
| Cn1ncc2cc(-c3cc(=O)n4ncc(-c5ccccn5)c4[nH]3)ccc21 | ≤ 10 |
| CCn1ncc2cc(-c3cc(=O)n4nc(NC(C)=O)c(-c5ccccn5)c4[nH]3)ccc21 | ≤ 10 |
| O=c1cc(-c2ccc3c(c2)OCCO3)[nH]c2c(-c3ccc(N4CCOCC4)nc3)cnn12 | ≤ 10 |
| Nc1nn2c(=O)cc(-c3cc4ccccc4o3)[nH]c2c1-c1ccccn1 | ≤ 10 |
| O=C(c1cnn2c(=O)cc(-c3ccc4c(c3)OCCO4)[nH]c12)N1CCCC1 | ≤ 10 |
| Cc1nn2c(=O)cc(-c3ccc4[nH]nnc4c3)[nH]c2c1-c1ccc(Cl)cc1 | ≤ 10 |
| Cc1nn2c(=O)cc(-c3ccc4[nH]nnc4c3)[nH]c2c1-c1ccccc1 | ≤ 10 |
| Cc1cc2cc(-c3cc(=O)n4ncc(-c5ccccn5)c4[nH]3)ccc2o1 | ≤ 10 |
| O=c1cc(-c2ccc(Cl)cc2)[nH]c2c(Cc3ccccc3)cnn12 | ≤ 10 |
| Cc1ccc(-c2cc(=O)n3ncc(-c4ccccn4)c3[nH]2)cc1 | ≤ 10 |
| Nc1nn2c(=O)cc(-c3ccc(Cl)c(Cl)c3)[nH]c2c1-c1ccccn1 | ≤ 10 |

| Compound | IC50 [µM] |
| --- | --- |
| N#Cc1c(O)nn2c(=O)cc(-c3ccc(Cl)cc3)[nH]c12 | ≤ 10 |
| Cc1c(-c2cc(=O)n3nc(N)c(-c4ccccn4)c3[nH]2)ccc2c1OCO2 | ≤ 10 |
| O=c1cc(-c2ccc3c(c2)OCO3)[nH]c2c(Cc3ccccn3)cnn12 | ≤ 10 |
| Nc1nn2c(=O)cc(-c3ccc4[nH]nnc4c3)[nH]c2c1Cc1ccccc1 | ≤ 10 |
| O=c1cc(-c2ccc(Cl)cc2Cl)[nH]c2c(-c3ccccn3)cnn12 | ≤ 10 |
| O=c1cc(-c2ccc(C(F)(F)F)cc2)[nH]c2c(-c3ccccn3)cnn12 | ≤ 10 |
| O=c1cc(-c2ccc(F)cc2F)[nH]c2c(-c3ccccn3)cnn12 | ≤ 10 |
| Cc1nn2c(=O)cc(-c3ccc4ncccc4c3)[nH]c2c1-c1ccc(F)cc1 | ≤ 10 |
| Cc1cc2cc(-c3cc(=O)n4nc(N)c(-c5ccccn5)c4[nH]3)ccc2o1 | ≤ 10 |
| Cn1ncc2cc(-c3cc(=O)n4nc(N)c(-c5ccccn5)c4[nH]3)ccc21 | ≤ 10 |
| Nc1nn2c(c1-c1ccccn1)CC(c1ccc3c(c1)OC(F)(F)O3)=CC2=O | ≤ 10 |
| O=c1cc(-c2ccccc2)[nH]c2c(-c3ccc(O)nc3)cnn12 | ≤ 10 |
| Cc1nn2c(=O)cc(-c3ccc4c(c3C)OCO4)[nH]c2c1-c1ccccn1 | ≤ 10 |
| COc1cc(Cl)ccc1-c1cc(=O)n2ncc(-c3ccccn3)c2[nH]1 | ≤ 10 |
| O=c1cc(-c2ccc3c(c2)OCCO3)[nH]c2c(-c3cccc(Cl)c3)cnn12 | ≤ 10 |
| CCc1nn2c(=O)cc(-c3ccc4[nH]ncc4c3)[nH]c2c1-c1ccccn1 | ≤ 10 |
| O=c1cc(-c2ccc3[nH]nnc3c2)[nH]c2c(Cc3ccccc3)cnn12 | ≤ 10 |
| CCCNC(=O)c1c(O)nn2c(=O)cc(-c3ccc4[nH]nnc4c3)[nH]c12 | ≤ 10 |
| Nc1nn2c(=O)cc(-c3cccc(F)c3)[nH]c2c1-c1ccccn1 | ≤ 10 |
| CCCNC(=O)c1c(N)nn2c(=O)cc(-c3ccc4c(c3)OCCO4)[nH]c12 | ≤ 10 |
| Cc1c(-c2cc(=O)n3ncc(-c4ccccn4)c3[nH]2)ccc2c1OCO2 | ≤ 10 |
| Cc1nn2c(=O)cc(-c3ccc4[nH]ccc4c3)[nH]c2c1-c1ccccc1 | ≤ 10 |
| CC(=O)Nc1nn2c(=O)cc(-c3ccc4[nH]ncc4c3)[nH]c2c1-c1ccccn1 | ≤ 10 |
| Cn1nnc2cc(-c3cc(=O)n4ncc(-c5ccccn5)c4[nH]3)ccc21 | ≤ 10 |
